Values joined by “and” are separate entries in the source; they are usually repeats but may differ in a detail not shown here. Identical values can stand only once. “Also recorded” adds a separate entry of the source. Like-named read-outs stand apart in the source and are kept apart here. [ ]: non-standard residue; d: D form. dPhe(4-I) = N[C@H](Cc1ccc(I)cc1)C(=O)O

Series [1] has as its system MC3R and MC4R knockout mice. Conditions: cited from earlier work.
Series [2] deals with mouse (m)MC3R. Conditions: HEK293 cells, cited from earlier work.
The test system of series [3] is females, ovariectomized or estradiol treated. The conditions noted are these: cited from earlier work; for effect of ovariectomy or estradiol treatment on food intake after ligand: ref [13],[21],[34].
Series [4] concerns male and female rats. Conditions: ICV, ref [5] Maranon and coworkers in 2014, cited from earlier work.
For series [5] the following is noted: ref [13],[24]; cited from earlier work.
Series [6] has as its system mMC4R. The conditions noted are these: antagonist/inverse agonist, ref [40],[41], cited from earlier work.
In series [7] the test system is female and male rats. The conditions noted are these: ref [13]; cited from earlier work.
Series [8] is described as follows: Solubility / precipitation of SKY2-23-7. In kind it is physicochemical.
Series [9] has as its system wild type female and male littermate mice. Nature of the series: Energy expenditure after ICV administration, TSE metabolic cages. The series is classed as in vivo, mice (mixed C57BL/6J and 129/Sv).
Series [10] has the same test system. Nature of the series: Cumulative food intake after ICV administration, TSE metabolic cages. The series is classed as in vivo, mice (mixed C57BL/6J and 129/Sv).
Series [11] has as its system mMC1R. Conditions: read-out: EC50 at mMC1R; agonist; ref [22],[23]; cited from earlier work.
The subject of series [12] is wild type female and male littermate mice. Nature of the series: Locomotor activity. In kind it is in vivo, mice (mixed C57BL/6J and 129/Sv). Conditions: for total ambulatory activity (cumulative beam breaks): ICV.
Series [13] deals with mMC4R. Conditions: HEK293 cells, ref [22],[23] (Doering et. al.), cited from earlier work.
Series [14] deals with mMC5R. The conditions noted are these: read-out: EC50 at mMC5R; agonist; ref [22],[23]; cited from earlier work.
Series [15] relates to wild type female and male littermate mice. Kind of series: Respiratory exchange ratio. In kind it is in vivo, mice (mixed C57BL/6J and 129/Sv).
For series [16], the system named is male and female mice. In kind it is in vivo, mice (mixed C57BL/6J and 129/Sv). The conditions noted are these: 5 nmol ICV, conventional cages, pilot.

In the case of MTII, the “sex difference in food intake effect” value in series [1] (MC3R and MC4R knockout mice, same genotype, ref [15],[16]) is “no differences reported between male and female mice”. For the same substance, the food intake entry in series [1] (MC3R and MC4R knockout mice, ref [15],[16]) was “decrease food intake”.

In the case of SHU9119, in series [2] (at 1 µM, ref [22] (Doering et. al.)), the “partial agonism at mMC3R” value is 50%. Further, the “effect of ovariectomy or estradiol treatment on food intake after ligand” value in series [3] is on record as “minimal effects on food intake”. In addition, the blood pressure result in series [4] (female rats) is “no effect on blood pressure”; in series [4] (male rats), “significantly reduced blood pressure”. Further, the energy expenditure entry in [5] is on record as “decrease energy expenditure”.

Turning to “AGRP: endogenous MC3R antagonist and MC4R antagonist/inverse agonist AGRP (SSRRCVRLHESCLGQQVPCCDPCATCYCRFFNAFCYCRKLGTAMNPCSRT; UniProt O00253 83-132, looked up)”, the “pA2 at mMC4R” value in series [6] is reported as 9.4. Moreover, in series [6] (read-out: Ki at mMC4R), the Ki is 0.4 to 2.5 nM. Also, the “effect of ovariectomy on ligand-dependent energy expenditure” value in series [3] (females, ref [13]) was “ovariectomy can blunt”. Further, the “effect of ovariectomy or estradiol treatment on food intake after ligand” value in [3] was “minimal effects on food intake”. In addition, in series [7], the “energy expenditure, female versus male” value is reported as “reduces energy expenditure in female rats more than in male rats” and the food intake result is given as “food intake is unaffected”. In [1] (ICV, MC3R and MC4R male knockout mice, ref [8],[12]), the food intake entry was “increased food intake”. In addition, in series [5], the energy expenditure entry is “decrease energy expenditure” and the “respiratory exchange ratio (RER)” value was “increase respiratory exchange ratio”.

As to Ac-W[dPhe(4-I)]RW-NH2 [SKY2-23-7], the solubility in saline result in series [8] (added to saline alone) was “precipitated out”. Further, in series [8] (doses above 7.5 nmol ICV, male mice), the “solubility limit on dosing” value is recorded as “higher dosing was prevented due to the solubility”. Besides, the “pA2 at mMC3R” value in series [2] (Schild analysis, antagonist, ref [22],[23] (Doering et. al.)) was 5.43±0.16. Also, in series [2] (up to 100 µM, ref [22],[23] (Doering et. al.)), the “agonist activity at mMC3R” value is reported as “minimal agonist activity; also recorded: lacks the mMC3R partial agonism”. Also, the energy expenditure entry in [9] (female, 2.5 nmol ICV, p<0.001, observed at 5, 6, 15, 21, and 22 hours) is “significant increase in energy expenditure”; in series [9] (male, doses lower than 7.5 nmol ICV) it was “No significant effect”. Besides, the “total calories burned in 24 hours” value in series [9] (female, 7.5 nmol ICV, p<0.05) is recorded as “significant decrease in total calories burned”. The “energy expenditure (trend)” value in series [9] (male, 7.5 nmol ICV) was “trended towards decreasing energy expenditure”. The “hourly energy expenditure normalized to weight (Kcal/hr/kg)” value in series [9] (male, 7.5 nmol ICV, at 4, 20, 21, 23 and 24 hours, compared to control) is on record as “decrease in energy expenditure”. Also, in [9] (male, ICV), the “total calories spent in 24 hours” value was “no effect”. For the same substance, the cumulative food intake entry is recorded as “significant increase in food intake” in series [10] (female, 2.5 nmol ICV, 6–24 hours post-administration); “no significant effect” in [10] (female, 5 nmol ICV); “no significant effect” in series [10] (female, 7.5 nmol ICV); “no significant effect” in series [10] (male, 2.5 nmol ICV); “significant increase in food intake” in series [10] (male, 7.5 nmol ICV, 2–24 hours post-administration). Also, the “cumulative food intake, dose response” value was “A dose response pattern is observed” in [10] (female, 2.5 nmol, 1 nmol, and 0.5 nmol ICV); “dose dependent increase in food intake” in series [10] (male, ICV, metabolic cages, p<0.0001). Besides, the EC50 in [11] is 2000 ± 600 nM; in [14], 2800 ± 1100 nM. Also, the hourly activity entry in series [12] (female, 2.5 nmol ICV, 5 hours post administration) is reported as “Increased activity”; in series [12] (female, 2.5 nmol ICV, 24 hours post administration) it was “significant decrease in activity”; in series [12] (male, 7.5 nmol ICV, time points 8, 15, 18, and 24 hours) it was “significant increases in activity”. The total activity entry was “significant decrease in total activity” in [12] (female, 5 nmol ICV, light cycle, p<0.05); “no other doses resulted in a significant changes in total activity” in series [12] (female, other doses ICV, dark cycle (0–14 hrs), p=0.28); “no other doses resulted in a significant changes in total activity” in [12] (female, other doses ICV, light cycle (14–26 hrs), p=0.65). For the same substance, the “total ambulatory activity (cumulative beam breaks)” value in series [12] (male, dark cycle (0–14 hrs), p=0.39) is recorded as “no significant effect”; in series [12] (male, light cycle (14–26 hrs), p=0.64) it was “no significant effect”. Further, the “pA2 at mMC4R” value in series [13] (Schild analysis, antagonist) was 7.83 and 7.83±0.16. Also, the “agonist activity at mMC4R” value in series [13] (up to 100 µM) is given as “minimal agonist activity”. Besides, the “average RER” value in series [15] (female, 2.5 nmol ICV, both dark and light cycles, p<0.01) is “significantly increased”. Further, the RER entry in series [15] (female, 7.5 nmol ICV) is listed as “no effect”; in [15] (male, 2.5 nmol ICV), “minimal effect”. The “hourly RER” value in series [15] (male, 7.5 nmol ICV, early light cycle 15–18 hrs post-administration) is given as “significantly increased”; in series [15] (male, 7.5 nmol ICV, individual time points 2–7 and 10–14 hours), “increased”. For the same substance, the “total average RER” value was “No significant effect” in series [15] (male, 7.5 nmol ICV, entire light cycle (14–26 hrs)); “increased” in series [15] (male, 7.5 nmol ICV, first dark cycle (0–14 hrs), p<0.01); “increased” in [15] (male, 7.5 nmol ICV, first two hours following injection, p<0.01). Besides, the food intake entry is recorded as “not observed” in series [16] (female, trend of increase in food intake) and “an increase in food intake was observed” in series [16] (male).

Broadly, the pA2 is the negative logarithm of the molar antagonist concentration that doubles the agonist concentration needed for the same response. In general, Ki refers to the dissociation constant of the complex between target and ligand, obtained from inhibition or displacement. The term EC50 denotes the concentration giving half of the maximal effect.
